# Assay results published in patent US20250177346A1 (priority 2022, published 2025).
# Experiments:
# C57BL/6 mouse model [1] = conditions: in vivo
# [2] = test system: hair dermal papilla cells (HDPCs) derived from human hair follicles; type: cell-based
# [3] = test system: outer root sheath cells derived from human hair follicles; type: cell-based
# [4] = test system: hair dermal papilla cells derived from human hair follicles; type: cell-based
# human hair follicles [5] = type: cell-based
# [6] = test system: outer root sheath cells derived from human hair follicles; type: cell-based; remark: listed apart in the source
# [7] = test system: outer root sheath cells (ORSs) derived from human hair follicles; type: cell-based
# [8] = test system: human hair dermal papilla cells; type: cell-based
# C57BL/6 mouse model [9] = conditions: in vivo; remark: listed apart in the source
# human hair follicles [10] = type: cell-based; remark: listed apart in the source
smiles,measurement,setting,value
"Nc1cc(N2CCCCC2)nc(N)[n+]1[O-] [minoxidil, 6-piperidin-1-ylpyrimidine-2,4-diamine 3-oxide]",hair growth / area of hair growth in the anagen phase,C57BL/6 mouse model [1],hair growth was shown
"O=C(NCc1ccc2c(c1)OCO2)c1c(Cl)cccc1Cl [Alda-1, N-(1,3-benzodioxol-5-ylmethyl)-2,6-dichlorobenzamide]",cell viability of hair dermal papilla cells,[2],significantly increased
same,proliferation of hair dermal papilla cells compared with minoxidil,[2],equivalent to or greater than those of minoxidil
same,"ATP production of mitochondria, increase",[3],~10 fold
same,basal respiration rate,[3],remarkably increased
same,maximal respiration rate,[3],remarkably increased
same,oxygen consumption efficiency of outer root sheath cells,[3],increased
same,hair growth / area of hair growth in the anagen phase,C57BL/6 mouse model [1],hair growth was shown
same,fluorescence level indicating DCFDA (oxidative stress),[4],significantly reduced
same,elongation of hair in human hair follicles,human hair follicles [5],promoted the elongation of hair
same,growth of hair in hair follicles compared with minoxidil,human hair follicles [5],higher levels compared to minoxidil
same,"oxidative stress in outer root sheath cells (DCFDA level, flow cytometry)",[6],significantly reduced
same,cell viability of outer root sheath cells,[7],significantly increased
same,proliferation of outer root sheath cells compared with minoxidil,[7],equivalent to or greater than those of minoxidil
same,protein level of basic fibroblast growth factor (bFGF),[8],increased
same,protein level of insulin-like growth factor 1 (IGF-1),[8],increased
same,protein level of keratinocyte growth factor (FGF-7),[8],increased
same,protein level of platelet-derived growth factor (PDF),[8],increased
same,anagen induction score,C57BL/6 mouse model [9],increased compared to the control
same,formation of hair follicles (hematoxylin and eosin staining),C57BL/6 mouse model [9],promoted
same,percentage of areas where hair in the anagen phase grew,C57BL/6 mouse model [9],significantly increased
same,skin thickness,C57BL/6 mouse model [9],increased compared to the control
same,Ki-67 positive cell effect compared with minoxidil,human hair follicles [10],even better than that of minoxidil
same,level of Ki-67 positive cells in hair follicles,human hair follicles [10],increased
